Values joined by “and” are separate entries in the source; they are usually repeats but may differ in a detail not shown here. Equal entries are not always repeated. “Also recorded” adds a separate entry of the source.
Assays:
[1] = Critical micelle concentration by fluorescence staining with diphenylhexatriene (DPH); type: physicochemical; conditions: aqueous solution
Description: While a method for measuring CMC is not particularly limited, a method widely known in the art may be used, and the measurement may be performed by, for example, a fluorescence staining method using diphenylhexatriene (DPH).
(§1) Specifically, the critical micellar concentration (CMC) was measured using fluorescence staining and diphenylhexatriene (DPH), and the hydrodynamic radii (Rh) of the micelles formed by agents were measured through a dynamic light scattering (DLS) experiment. The measured results are shown in Tables 1 and 2, compared with a conventional amphiphilic molecule (detergent), DDM.

[2] = molecular target: T1, human β2 adrenergic receptor (β2AR) (Homo sapiens, UniProt P07550); assay: [3H]-dihydroalprenolol radioligand binding of β2AR purified in detergent; conditions: 10 nM [3H]-DHA, 30 minutes, room temperature
T1 construct: made in house
Description: An activation degree of a receptor (mBBr-β2AR) purified by DDM or XMAs was measured by [^3H]-dihydroalprenolol ([^3H]-DHA) binding.
Specifically, a radioligand binding assay was performed by the following method. β2AR was purified in the presence of 0.1% DDM. After β2AR was reloaded into an M1 Flag column in the presence of 2 mM CaCl2, a DDM (0.1%)-XMA (0.2%) buffer mixture was prepared in a ratio of 50:50, 20:80, 10:90, 5:95 or 0:100. The receptor was eluted in 20×CMC XMA with 5 mM EDTA and 0.2 mg/ml of a free Flag peptide. 0.1 pmol purified β2AR solubilized in DDM, P-XMA-C11, P-XMA-C12, M-XMAs or O-XMAs was incubated with 10 nM of radioactive DHA [^3H]-dihydroalprenolol (DHA) for 30 minutes at room temperature. The mixture was loaded into a G-50 column, and a flow-through was collected with a binding buffer (20 mM HEPES pH 7.5, supplemented with 0.5 mg/ml BSA, 100 mM NaCl), and further filled with 15 ml of a scintillation fluid. Receptor-binding [^3H]DHA was measured with a scintillation counter (Beckman). Non-specific binding of [^3H]-DHA was calculated by adding 1 μM of alprenolol (Sigma) in the same binding reaction. The binding degree of [^3H]-DHA was measured as a column graph.

[3] = Hydrodynamic radius and size distribution of micelles by dynamic light scattering (DLS); type: physicochemical; conditions: for Rh (nm), hydrodynamic radius of micelles: 1.0 wt % stated for M-/O-XMAs (FIG. 37); for size distribution of micelles (number of micelle sets): FIGS. 36 and 37
Description: A method for measuring the radius of a micelle is not particularly limited, but a method well known in the art may be used, and for example, the measurement may be performed using a dynamic light scattering (DLS) experiment.
as §1

[4] = system: leucine transporter (LeuT); assay: LeuT long-term stability, [3H]-Leu binding by scintillation proximity assay (SPA); type: biochemical, Aquifex aeolicus; conditions: room temperature, 12-day incubation; for LeuT long-term stability (ligand binding activity): CMC+0.04 wt %; for LeuT ligand binding activity maintained: CMC+0.2 wt %
Description: An experiment for measuring the structural stability of a LeuT protein due to M-XMAs or O-XMAs was performed. Each amphiphilic compound was used at CMC+0.04 wt % (a) or CMC+0.2 wt % (b), and the ligand-binding activity of LeuT was determined using [^3H]-Leu by scintillation proximity assay (SPA). Measurement was regularly performed at room temperature during a 12-day incubation period.
Specifically, wild-type leucine transporter (LeuT) derived from thermophilic bacteria Aquifex aeolicus was purified according to a previously disclosed protocol (G. Deckert et al., Nature 1998, 392, 353-358). In summary, LeuT was expressed in E. coli C41 (DE3) incubated in lysogeny broth supplemented with 0.1 mg/ml ampicillin. Protein expression was induced by adding isopropyl β-D-thiogalactopyranoside at the final concentration of 0.1 mM. Cell membranes were isolated from disrupted cells (Constant Systems Homogenizers, Kennesaw, Ga.), and solubilized in 1% (w/v) n-dodecyl-β-D-maltopyranoside (DDM; Affymetrix, Santa Clara, Calif.). After solubilization, LeuT was fixed to a chelating Sepharose Fast Flow resin (GE Healthcare), and approximately 90 to 100% pure LeuT was eluted in 20 mM Tris-HCl (pH 7.5), 199 mM KCl, 1 mM NaCl, 0.05% (w/v) DDM and 300 mM imidazole. Afterward, the purified LeuT (approximately 1.2 mg mL^−1) was diluted 10 times with buffer which is the same as that used above and supplemented with M-XMAs and O-XMA, except DDM and imidazole, at the final concentration of CMC+0.04% (w/v) or CMC+0.2% (w/v). DDM and P-XMA-C11 were used as positive controls. Protein samples were stored at room temperature, and protein activity at a predetermined time was determined by measuring [^3H]-Leucine binding using SPA. SPA was performed using a total volume of 100 μL of […] of each protein sample solubilized in a buffer containing 450 mM NaCl, 50 nM [^3H]-Leucine and 0.125 mg ml^−1 copper chelate (His-Tag) YSi beads (Perkin Elmer, Denmark). A [^3H]-Leucine binding degree was measured using a MicroBeta liquid scintillation counter (Perkin Elmer).

[5] = molecular target: T1, human β2 adrenergic receptor (β2AR); assay: mBBr-β2AR fluorescence spectrum after dilution to CMC or less; type: biochemical; conditions: diluted with NH buffer, 30 minutes
Description: An experiment for comparing changes in protein structures of XMAs and DDM at CMC or less of an amphiphilic molecule was carried out.
Specifically, 0.5 μl of an unliganded mBB-labeled receptor solubilized in 20×CMC P-XMA-C11 or P-XMA-C12 at 50 μM was diluted with 500 μl of a NH buffer (20 mM HEPES pH 7.5, 100 mM NaCl). The protein was incubated for 30 minutes, and the mBBr spectrum was measured. The receptor solubilized in 0.1% DDM was diluted with a NH buffer, and used as a control.

[6] = molecular target: T2, melibiose permease (MelB) (Salmonella typhimurium, UniProt P30878); assay: MelB extraction from membranes and thermostability, SDS-PAGE and western blotting
T2 construct: made in house; host or cells: Salmonella typhimurium DW2 cells (ΔmelB and ΔlacZY) (so in the source); membrane preparation
Description: An experiment for measuring the structural stability of the Salmonella typhimurium melibiose permease (MelB) protein due to XMAs was performed. The MelB protein was extracted on a membrane using XMAs and DDM, and the amount and structure of the extracted protein were analyzed by SDS-PAGE and western blotting. A concentration of the used compound was 1.5 wt %, and the protein was extracted at a different temperature (0, 45, 55, or 65° C.) to evaluate two kinds of performance such as protein extraction efficiency and stabilization ability of the compound at the same time. Membrane samples that were not treated with XMAs or DDM were used as controls.
Specifically, MelBSt stability due to DDM and XMAs was evaluated according to the method described in the paper (P. S. Chae, et al., Nat. Methods 2010, 7, 1003-1008) written by the inventor in 2010. The protein (MelBSt) was produced using plasmid pK95ΔAHB/WT MelBSt/CH10 encoding wild-type MelB with a 10-His tag at the C-terminus and Salmonella typhimurium DW2 cells (ΔmelB and ΔlacZY). Cell growth and membrane preparation were carried out according to the method described in the paper (Nat. Commun. 2014, 5, 3009) written by A. S. Ethayathulla et al. A protein assay was performed using a Micro BCA kit (Thermo Scientific, Rockford, Ill.). To measure solubilization/stability, MelBSt-containing membrane samples (final protein concentration of 10 mg/mL) were incubated with a solubilization buffer (20 mM sodium phosphate, pH 7.5, 200 mM NaCl, 10% glycerol, 20 mM melibiose) and 1.5% (w/v) DDM, P-XMAs (P-XMA-C8, P-XMA-C9, P-XMA-C10, P-XMA-C11 and P-XMA-C12), M-XMAs (M-XMA-C11, M-XMA-C12, M-XMA-C14, M-XMA-C16 and M-XMA-C18) or O-XMAs (O-XMA-C11, O-XMA-C12, O-XMA-C14, O-XMA-C16 and O-XMA-C18) at four different temperatures (0, 45, 55 and 65° C.) for 90 minutes. Following ultracentrifugation at 355,590 g in a Beckman Optima™ MAX ultracentrifuge using a TLA-100 rotor for 45 minutes at 4° C., 20 μg proteins were separated by SDS-16% PAGE, and then immunoblotted with a Penta-His-HRP antibody (Qiagen, Germantown, Md.). MelBSt was detected using a SuperSignal West Pico chemiluminescent substrate by an ImageQuant LAS 4000 Biomolecular Imager (GE Health Care Life Sciences).

T2 sequence (P30878 whole entry): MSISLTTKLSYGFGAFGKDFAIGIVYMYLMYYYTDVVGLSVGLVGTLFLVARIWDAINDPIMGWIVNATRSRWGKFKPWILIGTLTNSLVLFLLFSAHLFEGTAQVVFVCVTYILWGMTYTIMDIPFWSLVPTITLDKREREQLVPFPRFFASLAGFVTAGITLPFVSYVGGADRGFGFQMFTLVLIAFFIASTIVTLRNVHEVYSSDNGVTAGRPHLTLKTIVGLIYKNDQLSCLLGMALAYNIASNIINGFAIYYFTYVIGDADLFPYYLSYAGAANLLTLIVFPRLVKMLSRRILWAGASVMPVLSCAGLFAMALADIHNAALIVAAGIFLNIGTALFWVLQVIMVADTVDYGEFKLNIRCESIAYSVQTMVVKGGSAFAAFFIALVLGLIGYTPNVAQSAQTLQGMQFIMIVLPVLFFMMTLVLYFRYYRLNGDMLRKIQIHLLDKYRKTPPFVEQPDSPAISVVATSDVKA
T1 sequence (P07550 whole entry): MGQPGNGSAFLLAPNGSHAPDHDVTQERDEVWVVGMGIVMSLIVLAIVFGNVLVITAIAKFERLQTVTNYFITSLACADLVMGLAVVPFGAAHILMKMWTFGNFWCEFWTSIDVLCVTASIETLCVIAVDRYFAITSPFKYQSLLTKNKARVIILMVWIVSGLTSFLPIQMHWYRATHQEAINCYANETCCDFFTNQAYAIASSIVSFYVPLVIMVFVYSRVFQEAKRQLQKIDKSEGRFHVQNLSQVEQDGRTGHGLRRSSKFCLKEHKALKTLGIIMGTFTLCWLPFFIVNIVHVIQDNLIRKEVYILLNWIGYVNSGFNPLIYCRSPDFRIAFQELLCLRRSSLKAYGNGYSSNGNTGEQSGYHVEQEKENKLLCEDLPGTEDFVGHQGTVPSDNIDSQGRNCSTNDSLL

CMC [1]	CMC (wt %) [1]	Rh (nm), hydrodynamic radius of micelles [3]	Structure (SMILES)	[3H]-DHA binding degree of purified β2AR [2]	LeuT long-term stability (ligand binding activity) [4]	LeuT ligand binding activity maintained [4]	structural change of β2AR on dilution to CMC or less [5]	size distribution of micelles (number of micelle sets) [3]	MelBSt stabilization ability compared with DDM ([6]; 1.5 wt % detergent, 0, 45, 55 and 65° C.)	MelB protein extraction efficiency ([6]; 1.5 wt % detergent, 45° C., 90 minutes)	MelB protein extraction / maintained solubilization ([6]; 1.5 wt % detergent, 55° C., 90 minutes)	MelB protein extraction ([6]; 1.5 wt % detergent, 65° C., 90 minutes)
~6.0 µM	~0.0011 wt %	3.2 ± 0.03 nm	CCCCCCCCCCCCC(CO[C@@H]1OC(CO)[C@@H](O[C@@H]2OC(CO)[C@@H](O)C(O)C2O)C(O)C1O)(CO[C@@H]1OC(CO)[C@@H](O[C@@H]2OC(CO)[C@@H](O)C(O)C2O)C(O)C1O)Cc1ccccc1CC(CCCCCCCCCCCC)(CO[C@@H]1OC(CO)[C@@H](O[C@@H]2OC(CO)[C@@H](O)C(O)C2O)C(O)C1O)CO[C@@H]1OC(CO)[C@@H](O[C@@H]2OC(CO)[C@@H](O)C(O)C2O)C(O)C1O (stereo partly shown) [O-XMA-C12]	–	substantial reinforcement of long-term stability of LeuT, compared with DDM	superior at maintaining the ligand binding activity of LeuT compared to DDM	–	–	–	–	–	–
~3 µM and ~3.0 µM	~0.0006 wt %	3.3 ± 0.03 nm	CCCCCCCCCCCC(CO[C@@H]1OC(CO)[C@@H](O[C@H]2OC(CO)[C@@H](O)C(O)C2O)C(O)C1O)(CO[C@@H]1OC(CO)[C@@H](O[C@H]2OC(CO)[C@@H](O)C(O)C2O)C(O)C1O)Cc1ccc(CC(CCCCCCCCCCC)(CO[C@@H]2OC(CO)[C@@H](O[C@H]3OC(CO)[C@@H](O)C(O)C3O)C(O)C2O)CO[C@@H]2OC(CO)[C@@H](O[C@H]3OC(CO)[C@@H](O)C(O)C3O)C(O)C2O)cc1 (stereo partly shown) [P-XMA-C11]	radioactive-ligand binding degree similar to the receptor purified by DDM	–	–	less structural change	two sets of micelles having different radii	–	–	–	–

Second part, the compound before the results:

Structure (SMILES)	CMC [1]	CMC (wt %) [1]	Rh (nm), hydrodynamic radius of micelles [3]	[3H]-DHA binding degree of purified β2AR [2]	LeuT long-term stability (ligand binding activity) [4]	LeuT ligand binding activity maintained [4]	structural change of β2AR on dilution to CMC or less [5]	size distribution of micelles (number of micelle sets) [3]	MelBSt stabilization ability compared with DDM ([6]; 1.5 wt % detergent, 0, 45, 55 and 65° C.)	MelB protein extraction efficiency ([6]; 1.5 wt % detergent, 45° C., 90 minutes)	MelB protein extraction / maintained solubilization ([6]; 1.5 wt % detergent, 55° C., 90 minutes)	MelB protein extraction ([6]; 1.5 wt % detergent, 65° C., 90 minutes)
CCCCCCCCCCCC(CO[C@@H]1OC(CO)[C@@H](O[C@H]2OC(CO)[C@@H](O)C(O)C2O)C(O)C1O)(CO[C@@H]1OC(CO)[C@@H](O[C@H]2OC(CO)[C@@H](O)C(O)C2O)C(O)C1O)Cc1cccc(C[C@](CCCCCCCCCCC)(CO[C@@H]2OC(CO)[C@@H](O[C@H]3OC(CO)[C@@H](O)C(O)C3O)C(O)C2O)CO[C@@H]2OC(CO)[C@@H](O[C@@H]3OC(CO)[C@@H](O)C(O)C3O)C(O)C2O)c1 (stereo partly shown) [M-XMA-C11]	~6.0 µM	~0.0011 wt %	3.2 ± 0.01 nm	higher radioactive-ligand binding degree than P-XMA-C11	–	–	–	–	–	–	–	–
CCCCCCCCCCCCC(CO[C@@H]1OC(CO)[C@@H](O[C@H]2OC(CO)[C@@H](O)C(O)C2O)C(O)C1O)(CO[C@@H]1OC(CO)[C@@H](O[C@H]2OC(CO)[C@@H](O)C(O)C2O)C(O)C1O)Cc1cccc(C[C@](CCCCCCCCCCCC)(CO[C@@H]2OC(CO)[C@@H](O[C@H]3OC(CO)[C@@H](O)C(O)C3O)C(O)C2O)CO[C@@H]2OC(CO)[C@@H](O[C@@H]3OC(CO)[C@@H](O)C(O)C3O)C(O)C2O)c1 (stereo partly shown) [M-XMA-C12]	~4.0 µM	~0.0008 wt %	3.4 ± 0.02 nm	superior to O-XMA-C12, and similar to DDM	substantial reinforcement of long-term stability of LeuT, compared with DDM; also recorded: higher stability than O-XMA-C12	superior at maintaining the ligand binding activity of LeuT compared to DDM; also recorded: generally better performance than O-XMA-C12	–	–	–	–	–	–
CCCCCCCCCCCCC(CO[C@@H]1OC(CO)[C@@H](O[C@H]2OC(CO)[C@@H](O)C(O)C2O)C(O)C1O)(CO[C@@H]1OC(CO)[C@@H](O[C@H]2OC(CO)[C@@H](O)C(O)C2O)C(O)C1O)Cc1ccc(CC(CCCCCCCCCCCC)(CO[C@@H]2OC(CO)[C@@H](O[C@H]3OC(CO)[C@@H](O)C(O)C3O)C(O)C2O)CO[C@@H]2OC(CO)[C@@H](O[C@H]3OC(CO)[C@@H](O)C(O)C3O)C(O)C2O)cc1 (stereo partly shown) [P-XMA-C12]	~1 µM	~0.0002 wt %	3.7 nm and 3.7 ± 0.01 nm	radioactive-ligand binding degree similar to the receptor purified by DDM	–	–	less structural change	two sets of micelles having different radii	higher MelBSt stabilization ability than DDM	extraction efficiency at the same level as DDM	higher MelBSt extraction ability than DDM	extracted MelBSt

From US10647738B2, “Xylene-based amphiphilic compound and use thereof” (Industry-University Cooperation Foundation Hanyang …, priority 2016, dated 2020)
